Assay results published in patent publication US7541331B2, “Surfactant treatment regimen” (Discovery Laboratories, Inc., priority 2005, dated 2009).

Tested on: premature neonates
Test: Pilot phase 2 open study of lucinactant delivered as an aerosol via nCPAP for prevention of RDS
Conditions: in vivo
Experimental: This example provides a protocol for administration of lucinactant as an aerosol via nCPA to premature infants. This protocol has been used in a pilot phase 2, open study to evaluate the feasibility, safety, and tolerability of lucinactant delivered as an aerosol via nCPAP for the prevention of RDS in premature neonates.
Lucinactant was administered using an approved vibrating machine device (Aeroneb-Pro® or equivalent) and delivered via nCPAP within 30 minutes of birth. In a first treatment group, 20 mg/ml of lucinactant was administered within the first 30 minutes of life continually over three hours. Up to three retreatments were permitted over a 48 hour period, with each treatment separated by at least 3 hours (from end of previous treatment). In a second treatment group, 20 mg/ml of lucinactant was administered within the first 30 minutes of life continually over three hours. Up to three retreatments were permitted over a 48 hour period, with each treatment separated by at least one hours (from end of previous treatment).
Qualified premature neonates were sequentially enrolled and stratified by gestational age (stratum 1:30-32 completed weeks followed by stratum 2:28-29 completed weeks) into the first treatment regimen group (3 hours on aerosol treatment/3 hours off aerosol treatment) and received aerosolized lucinactant via nCPAP. Safety and tolerability data were evaluated after enrollment of every five neonates. Once enrollment in the first treatment group was completed, neonates were sequentially enrolled and stratified into the second treatment group (3 hours on aerosol treatment/1 hours off aerosol treatment). All neonates enrolled were evaluated through 28 days of age.

Q: lucinactant was tested. Which “adverse effects considered related to both study drug and the device” value did it give?
A: 35.3%

Q: And the “adverse effects considered related to study drug” value?
A: 47.1%

Q: What about the “adverse effects considered related to the device” value of the same substance?
A: 11.8%

Q: And the incidence of apnea?
A: 94.1%

Q: What about the incidence of hypocalcemia of the same substance?
A: 29.4%

Q: And the “incidence of oxygen saturation decreased” value?
A: 70.6%

Q: And the “incidence of patent ductus arteriosus” value?
A: 35.3%

Q: What about the “safety and tolerability of treatment” value of the same substance?
A: generally safe and well tolerated

Q: What about the “serious adverse effects considered related to the device” value of the same substance?
A: Two

Q: And the “total adverse effects reported” value?
A: 83

Q: And the “total serious adverse effects reported” value?
A: 5
